From patent US6984645B2, “Dual inhibitors of adipocyte fatty acid binding protein and keratinocyte fatty acid binding protein” (Bristol-Myers Squibb Company, priority 2001, dated 2006)
Structures can show the parent of a compound that is named as a salt.

melting point | Structure (SMILES)
187 to 189 °C | O=C(O)/C=C/c1cccc(OCc2ccccc2Cl)c1OCc1ccccc1Cl [Example 4, 2-(E)-3-[2,3-Bis[(2-chlorophenyl)methoxy]phenyl]-2-propenoic acid]
208 to 210 °C | O=C(Nc1c(OCc2ccccc2)cccc1C(=O)O)c1ccc(Cl)cc1Cl [Example 381, 2-[(2,4-Dichlorobenzoyl)amino]-3-(phenylmethoxy)benzoic acid]
97 to 99 °C | CO/N=C(/C(=O)O)c1cccc(OCc2ccccc2Cl)c1OCc1ccccc1Cl (single isomer, unassigned) [Example 341, (E or Z)-2,3-Bis[(2-chlorophenyl)methoxy]-α-(methoxyimino)benzeneacetic acid]
92 to 94 °C | O=C(O)C(F)c1cccc(OCc2ccccc2Cl)c1OCc1ccccc1Cl (stereo not drawn) [Example 24, 2,3-Bis[(2-chlorophenyl)methoxy]-α-fluorobenzeneacetic acid]
187 to 189 °C | O=C(Nc1c(OCc2cc(Cl)ccc2Cl)cccc1C(=O)O)c1ccccc1 [Example 384]
186 to 187 °C | O=C(O)c1cc(Br)cc(OCc2ccccc2Cl)c1OCc1ccccc1Cl [Example 355, 5-Bromo-2,3-bis[(2-chlorophenyl)methoxy]benzoic acid]
122 to 123 °C | Cc1cc(C)cc(COc2c(OCc3ccccc3Cl)cccc2C(=O)O)c1 [Example 361, 3-[(2-Chlorophenyl)methoxy]-2-[(3,5-dimethylphenyl)methoxy]benzoic acid]
177 to 179 °C | O=C(O)c1cccc(OCc2ccccc2Cl)c1OCc1ccc[n+]([O-])c1
183 to 184 °C | O=C(O)c1cccc(OCc2ccccc2Cl)c1OCc1cccnc1Cl [Example 366, 3-[(2-Chlorophenyl)methoxy]-2-[(2-chloro-3-pyridinyl)methoxy)benzoic acid]
189 to 191 °C | O=C(O)c1cccc(OCc2ccccc2Cl)c1OCc1cccc[n+]1[O-] [Example 367, 3-[(2-Chlorophenyl)methoxy]-2-[(1-oxido-2-pyridinyl)methoxy]benzoic acid]
151 to 153 °C | O=C(O)c1cccc(OCc2ccc(Cl)cc2Cl)c1OCc1ccccc1 [Example 354, 3-[(2,4-Dichlorophenyl)methoxy]-2-(phenylmethoxy)benzoic acid]
156 to 157 °C | O=C(O)c1cccc(OCc2ccccc2Cl)c1OCc1ccccc1Cl [Example 347, 2,3-Bis[(2-chlorophenyl)methoxy]benzoic acid]
156 to 158 °C | O=C(O)c1c(Br)ccc(OCc2ccccc2Cl)c1OCc1ccccc1Cl [Example 373, 6-Bromo-2,3-bis[(2-chlorophenyl)methoxy]benzoic acid]
110 to 112 °C | COc1ccccc1COc1c(OCc2ccccc2Cl)cccc1C(=O)O [Example 362, 3-[(2-Chlorophenyl)methoxy]-2-[(2-methoxyphenyl)methoxy]benzoic acid]
181 to 182 °C | O=C(O)c1cccc(OCc2ccccc2Cl)c1OCc1cccnc1 [Example 365]
145 to 148 °C | O=C(O)c1cccc(OCc2ccccc2Cl)c1OCc1ccc[n+]([O-])c1Cl [Example 370, 3-[(2-Chlorophenyl)methoxy]-2-[(2-chloro-1-oxido-3-pyridinyl)methoxy]benzoic acid]
172 to 174 °C | O=C(O)c1cccc(COc2ccccc2Cl)c1COc1ccccc1Cl [Example 9, 2,3-Bis[(2-chlorophenoxy)methyl]benzoic acid]
105 to 107 °C | O=C(O)Cc1cccc(OCc2ccccc2Cl)c1OCc1ccccc1Cl [Example 5, 2,3-Bis[(2-chlorophenyl)methoxy]benzeneacetic acid]
145 to 147 °C | O=C(Nc1c(OCc2c(Cl)cccc2Cl)cccc1C(=O)O)c1ccccc1 [Example 383]
113 to 115 °C | O=C(O)C(F)(F)c1cccc(OCc2ccccc2Cl)c1OCc1ccccc1Cl [Example 27, 2,3-Bis[(2-chlorophenyl)methoxy]-α,α-difluorobenzeneacetic acid]
140 to 142 °C | O=C(O)c1cccc(OCc2ccccc2)c1OCc1ccc(Cl)cc1Cl [Example 353, 2-[(2,4-Dichlorophenyl)methoxy]-3-(phenylmethoxy)benzoic acid]
197 to 201 °C | O=C(O)c1cccc(OCc2ccccc2Cl)c1OCc1nc2ccccc2[nH]1 (as salt: hydrochloride) [Example 371, 2-(1H-Benzimidazol-2-ylmethoxy)-3-[(2-chlorophenyl)methoxyl]benzoic acid, monohydrochloride]
117 to 118 °C | Cc1cc(C)cc(COc2cccc(C(=O)O)c2OCc2cc(C)cc(C)c2)c1 [Example 352]
202 to 204 °C | O=C(Nc1c(OCc2ccccc2)cccc1C(=O)O)c1cc(Cl)cc(Cl)c1 [Example 382, 2-[(3,5-Dichlorobenzoyl)amino]-3-(phenylmethoxy)benzoic acid]

melting point | Structure (SMILES)
107 to 109 °C | O=C(O)c1cccc(OCc2ccccc2Cl)c1OCc1ccc(OCc2ccccc2)cc1 [Example 360, 3-[(2-Chlorophenyl)methoxy]-2-[[4-(phenylmethoxy)phenyl]methoxy]benzoic acid]
114 to 116 °C | Cc1ccc(C)c(COc2cccc(C(=O)O)c2OCc2cc(C)ccc2C)c1 [Example 351, 2,3-Bis[(2,5-dimethylphenyl)methoxy]benzoic acid]
182 to 184 °C | O=C(Nc1c(OCc2ccc(Cl)cc2Cl)cccc1C(=O)O)c1ccccc1 [Example 387, 2-(Benzoylamino)-3-[(2,4-dichlorophenyl)methoxy]benzoic acid]
156 to 158 °C | O=C(O)c1cccc(OCc2cc(C(F)(F)F)cc(C(F)(F)F)c2)c1OCc1cc(C(F)(F)F)cc(C(F)(F)F)c1 [Example 350, 2,3-Bis[[3,5-bis(trifluoromethyl)phenyl]methoxy]benzoic acid]
126 to 127 °C | O=C(O)c1cccc(OCc2cccc(Cl)c2)c1OCc1cccc(Cl)c1 [Example 348, 2,3-Bis[(3-chlorophenyl)methoxy]benzoic acid]
179 to 182 °C | Cn1c(COc2c(OCc3ccccc3Cl)cccc2C(=O)O)nc2ccccc21 [Example 372]
148 to 150 °C (dec.) | O=C(O)C(Cc1cccc(OCc2ccccc2Cl)c1OCc1ccccc1Cl)C(=O)O [Example 7, [[2,3-Bis[(2-chlorophenyl)methoxy]phenyl]methyl]propanedioic acid]
182 to 183 °C | O=C(Nc1cccc(C(=O)O)c1OCc1ccccc1Cl)c1ccccc1Cl [Example 392, 3-[(2-Chlorobenzoyl)amino]-2-[(2-chlorophenyl)methoxy]benzoic acid]
107 to 109 °C | Cc1cccc(COc2c(OCc3ccccc3Cl)cccc2C(=O)O)c1 [Example 357, 3-[(2-Chlorophenyl)methoxy]-2-[(3-methylphenyl)methoxy]benzoic acid]
152 to 154 °C | O=C(O)c1cccc(OCc2ccccc2Cl)c1OCc1cccc(F)c1 [Example 358, 3-[(2-Chlorophenyl)methoxy]-2-[(3-fluorophenyl)methoxy]benzoic acid]
151 to 153 °C | O=C(O)c1cc(Br)cc(OCc2ccccc2)c1OCc1ccccc1 [Example 356, 5-Bromo-2,3-bis(phenylmethoxy)benzoic acid]
168 to 170 °C | O=C(O)c1cccc(OCc2ccccc2Cl)c1OCc1ccccn1 [Example 363]
128 to 129 °C | O=C(O)c1cccc(OCc2ccccc2Cl)c1OCc1cccc(C(F)(F)F)c1 [Example 359]
181 to 183 °C | O=C(O)C(O)c1cccc(OCc2ccccc2Cl)c1OCc1ccncc1 (stereo not drawn) [Example 344, 3-[(2-Chlorophenyl)methoxy]-α-hydroxy-2-(4-pyridinylmethoxy)benzeneacetic acid]
157 to 159 °C | O=C(O)c1cccc(OCc2ccccc2Cl)c1OCc1ccncc1 [Example 364]
219 to 220 °C | O=C(O)c1cccc(OCc2cc(Cl)cc(Cl)c2)c1OCc1cc(Cl)cc(Cl)c1 [Example 345, 2,3-Bis[(3,5-dichlorophenyl)methoxy]benzoic acid]
174 to 175 °C | O=C(O)c1cccc(OCc2ccc(Cl)cc2)c1OCc1ccc(Cl)cc1 [Example 349, 2,3-Bis[(4-chlorophenyl)methoxy]benzoic acid]
116 to 118 °C | O=C(O)C(=O)c1cccc(OCc2ccccc2Cl)c1OCc1ccccc1Cl [Example 26, 2,3-Bis[(2-chlorophenyl)methoxy]-α-oxobenzeneacetic acid]
164 to 166 °C | O=C(O)c1c(Br)ccc(OCc2ccccc2)c1OCc1ccccc1 [Example 374, 6-Bromo-2,3-bis(phenylmethoxy)benzoic acid]
186 to 188 °C | O=C(O)c1cccc(OCc2ccccc2Cl)c1OCc1cc[n+]([O-])cc1 [Example 369, 3-[(2-Chlorophenyl)methoxy]-2-[(1-oxido-4-pyridinyl)methoxy]benzoic acid]
172 to 174 °C | O=C(O)c1cccc(COc2ccccc2Cl)c1OCc1ccccc1Cl [Example 10, 3-[(2-Chlorophenoxy)methyl]-2-[(2-chlorophenyl)methoxy]benzoic acid]
167 to 168 °C | O=C(Nc1c(OCc2ccccc2)cccc1C(=O)O)c1ccccc1 [Example 375, 2-(Benzoylamino)-3-(phenylmethoxy)benzoic acid]
140 to 141 °C | CO/N=C(/C(=O)O)c1cccc(OCc2ccccc2Cl)c1OCc1ccccc1Cl (single isomer, unassigned) [Example 340, (E or Z)-2,3-Bis[(2-chlorophenyl)methoxy]-α-(methoxyimino)benzeneacetic acid]
168 to 169 °C | O=C(O)c1cccc(OCc2ccc(Cl)cc2Cl)c1OCc1ccc(Cl)cc1Cl [Example 346, 2,3-Bis[(2,4-dichlorophenyl)methoxy]benzoic acid]
